From paper PMC4122495, “Small Molecule Deubiquitinase Inhibitors Promote Macrophage Anti-Infective Capacity” (PLoS ONE, 2014)

What was measured:
[1] = test system: L. monocytogenes; test: Bactericidal test on exponential-phase bacteria, 2 h at 4°C; format: cell-based, Listeria monocytogenes 10403S; conditions: concentrations up to 5 µM, exponential growth phase
Procedure: For bacterial growth curve in broth culture, an overnight culture of L. monocytogenes was back-diluted 1∶50 into BHI broth in the presence of 5 µM of compounds 1 to 4, 2.5 µM of compound 9 or equivalent volume of DMSO and incubated statically at 30°C for up to 8 h. At indicated time points (0, 2, 4, 6 and 8 h), a 50 µl-aliquot of bacteria was serially diluted and plated on LB agar to determine the number of CFU. To test the bactericidal properties of compound 9, an overnight culture of L. monocytogenes was back-diluted 1∶50 into BHI broth and allowed to grow at 37°C with shaking until an optical density at 600 nm (OD600) of ∼0.6–0.7 was obtained. Bacteria were then exposed to 1, 2.5 or 5 µM of compound 9 or equivalent volume of DMSO for 2 h at 4°C. After incubation, bacteria were serially diluted and plated on LB agar to determine CFU.

[2] = test system: Norwalk virus replicon; test: HuNoV (Norwalk virus) replicon assay in HG23 cells, qRT-PCR; format: cell-based, human norovirus; conditions: 2.5 µM for 2 hours, genomes quantitated after 24 h by qRT-PCR, normalized to DMSO
Procedure: HG23 cells containing the Norwalk virus replicon plasmid under G418-selection were plated at 5×10^5 cells per well in 12-well plates and allowed to attach overnight. Afterwards, media was aspirated and replaced with fresh media containing DMSO, 5 µM WP1130, or 2.5 µM compound 9. DMSO and WP1130 remained on the cells for 24 hours, whereas compound 9 was removed after 2 hours. At the end of the experiment, media was aspirated, cells were washed once with PBS and total cellular RNA was isolated using the QIAGEN RNeasy Mini kit (QIAGEN, Valencia, CA). Following the manufacturer’s protocol, RNA was subjected to two rounds of DNase treatment. First, an on-column RNase-free DNase treatment (QIAGEN, Valencia, CA) was performed for 15 minutes at room temperature. After elution, another round of DNase treatment was performed using the DNA-free DNase removal kit (Ambion, Austin, TX). RNA concentration and purity were measured using a spectrophotometer, calculating the 260/280 ratio. RNA integrity (as well as the absence of DNA contamination) was confirmed by One-Step Reverse Transcription-Polymerase Chain Reaction (RT-PCR) using “No RT” controls. Norwalk virus genomes were then quantitated by qRT-PCR as previously described.

[3] = test system: ubiquitinated proteins (DUB activity) in RAW264.7 cells; test: Anti-ubiquitin immunoblot of RAW264.7 whole-cell lysates; format: cell-based, murine; conditions: 2.5 µM, uninfected RAW264.7 cells, treatment 0.5 h to 6 h
Procedure: RAW264.7 cells were cultured at an initial density of 4×10^6 cells per 6-well plate and allowed to adhere overnight. Macrophages were treated with 2.5 µM compound 9 for the indicated period of time. To obtain whole-cell lysates, cells were lysed in cell lysis buffer (10 mM Tris pH 8, 150 mM NaCl, 1% NP-40, 10 mM EDTA pH 8, 1 mM DTT and 1X protease inhibitors), incubated for 15 min on ice and briefly sonicated. Samples were diluted in 5X concentrated sample buffer containing β-mercaptoethanol and denatured at 95°C for 10 min. The samples were separated by SDS-PAGE on an 8% acrylamide gel and transferred to polyvinyldene fluoride membrane (PVDF, Millipore). Immunodetection was performed using an anti-ubiquitin monoclonal antibody (P4D1 clone, Santa Cruz), according to manufacturer’s instructions.

## CCCC(NC(=O)/C(C#N)=C/c1nc(Cl)ccc1Cl)c1ccc(OCCN2CCOCC2)cc1 (stereo not drawn) [Compound 9]
[1]
  bactericidal activity: No bactericidal activity
[2]
  reduction of detectable Norwalk virus genomes: 84.7%
[3]
  accumulation of ubiquitinated proteins (immunoblot): ubiquitinated proteins accumulated as soon as 0.5 h
